Measured values from ChEMBL document CHEMBL4145551, “Mitochondria-targeting indolizino[3,2-c]quinolines as novel class of photosensitizers for photodynamic anticancer activity” (Eur J Med Chem, 2018).
Activity calls are given as the source filed them. The calls are words filed in the database; no cut-off is given here.

Tested on: A549
Experiment: Photocytotoxicity against human A549 cells assessed as reduction in cell viability preincubated for 1 hr followed blue LED light irradiation for 10 mins and measured after 24 hrs by MTT assay
Assay type: functional, cell-based
Conditions: not given

Compound | Activity
c1csc(-c2nc3ccccc3c3cc4ccccn4c23)c1 | Dose-dependent effect
Cc1cccn2c1cc1c3ccccc3nc(-c3cccs3)c12 | Dose-dependent effect
Brc1ccc2cc3c4ccccc4nc(-c4ccco4)c3n2c1 | Dose-dependent effect

Same assay, conditions: A549, light or radiation study

Compound | IC50
c1csc(-c2nc3ccccc3c3cc4ccccn4c23)c1 | 1990 nM
Cc1cccn2c1cc1c3ccccc3nc(-c3cccs3)c12 | 1990 nM
Brc1ccc2cc3c4ccccc4nc(-c4ccco4)c3n2c1 | 1590 nM

Tested on: MCF7
Experiment: Photocytotoxicity against human MCF7 cells assessed as reduction in cell viability preincubated for 1 hr followed blue LED light irradiation for 10 mins and measured after 24 hrs by MTT assay
Assay type: functional, cell-based
Conditions: not given

Compound | Activity
c1csc(-c2nc3ccccc3c3cc4ccccn4c23)c1 | Dose-dependent effect
Cc1cccn2c1cc1c3ccccc3nc(-c3cccs3)c12 | Dose-dependent effect
Brc1ccc2cc3c4ccccc4nc(-c4ccco4)c3n2c1 | Dose-dependent effect

Same assay, conditions: MCF7, light or radiation study

Compound | IC50
c1csc(-c2nc3ccccc3c3cc4ccccn4c23)c1 | 1550 nM
Cc1cccn2c1cc1c3ccccc3nc(-c3cccs3)c12 | 1390 nM
Brc1ccc2cc3c4ccccc4nc(-c4ccco4)c3n2c1 | 830 nM

Tested on: not listed separately
Experiment: Dark toxicity in human HeLa cells assessed as reduction in cell viability up to 10 uM measured after 24 hrs by MTT assay
Assay type: cell-based
Conditions: not given

Compound | Activity
c1csc(-c2nc3ccccc3c3cc4ccccn4c23)c1 | Non-Toxic
Cc1cccn2c1cc1c3ccccc3nc(-c3cccs3)c12 | Non-Toxic
Brc1ccc2cc3c4ccccc4nc(-c4ccco4)c3n2c1 | Toxic

Tested on: DNA
Experiment: Induction of Escherichia coli pBR322 DNA cleavage at 20 uM irradiated with blue LED light after 30 mins in presence of H2O2 scavenger KI by agarose gel electrophoresis method
Assay type: nucleic-acid assay
Conditions: not given

Compound | Activity
Cc1cccn2c1cc1c3ccccc3nc(-c3cccs3)c12 | inactive

Tested on: HeLa
Experiment: Photocytotoxicity against human HeLa cells assessed as plasma membrane blebbing up to 10 uM preincubated for 1 hr followed by blue LED light irradiation for 5 mins and measured after 13 hrs by Hoechst 33258 staining based fluorescence microscopic method
Assay type: functional, cell-based
Conditions: not given

Compound | Activity
c1csc(-c2nc3ccccc3c3cc4ccccn4c23)c1 | Active
Cc1cccn2c1cc1c3ccccc3nc(-c3cccs3)c12 | Active
Brc1ccc2cc3c4ccccc4nc(-c4ccco4)c3n2c1 | Active

Tested on: MCF7
Experiment: Photocytotoxicity against human MCF7 cells assessed as induction of mitochondrial membrane potential depolarization at 10 uM preincubated for 1 hr followed by blue LED light irradiation for 5 mins by TMRE staining based confocal microscopic method
Assay type: functional, cell-based
Conditions: not given

Compound | Activity
Cc1cccn2c1cc1c3ccccc3nc(-c3cccs3)c12 | Active

Tested on: HeLa
Experiment: Photocytotoxicity against human HeLa cells assessed as DNA fragmentation up to 10 uM preincubated for 1 hr followed by blue LED light irradiation for 5 mins and measured after 13 hrs by Hoechst 33258 staining based fluorescence microscopic method
Assay type: functional, cell-based
Conditions: not given

Compound | Activity
c1csc(-c2nc3ccccc3c3cc4ccccn4c23)c1 | Active
Cc1cccn2c1cc1c3ccccc3nc(-c3cccs3)c12 | Active
Brc1ccc2cc3c4ccccc4nc(-c4ccco4)c3n2c1 | Active

Tested on: not listed separately
Experiment: Drug uptake in human HeLa cell mitochondria at 10 uM after 1 hr by mitotracker red staining based confocal laser scanning microscopic method
Assay type: ADME
Conditions: not given

Compound | Drug uptake
Cc1cccn2c1cc1c3ccccc3nc(-c3cccs3)c12 | Active

Tested on: HeLa
Experiment: Photocytotoxicity against human HeLa cells assessed as cellular shrinkage up to 10 uM preincubated for 1 hr followed by blue LED light irradiation for 5 mins and measured after 13 hrs by Hoechst 33258 staining based fluorescence microscopic method
Assay type: functional, cell-based
Conditions: not given

Compound | Activity
c1csc(-c2nc3ccccc3c3cc4ccccn4c23)c1 | Active
Cc1cccn2c1cc1c3ccccc3nc(-c3cccs3)c12 | Active
Brc1ccc2cc3c4ccccc4nc(-c4ccco4)c3n2c1 | Active

Tested on: DNA
Experiment: Induction of Escherichia coli pBR322 DNA cleavage at 20 uM irradiated with blue LED light after 30 mins in presence of singlet oxygen scavenger sodium azide by agarose gel electrophoresis method
Assay type: nucleic-acid assay
Conditions: not given

Compound | Activity
Cc1cccn2c1cc1c3ccccc3nc(-c3cccs3)c12 | inactive

Tested on: DNA
Experiment: Induction of Escherichia coli pBR322 DNA cleavage at 20 uM irradiated with blue LED light after 30 mins in presence of hydroxyl radical scavenger mannitol by agarose gel electrophoresis method
Assay type: nucleic-acid assay
Conditions: not given

Compound | Activity
Cc1cccn2c1cc1c3ccccc3nc(-c3cccs3)c12 | Active

Tested on: HeLa
Experiment: Photocytotoxicity against human HeLa cells assessed as reduction in cell viability preincubated for 1 hr followed blue LED light irradiation for 10 mins and measured after 24 hrs by MTT assay
Assay type: functional, cell-based
Conditions: not given

Compound | Activity
c1csc(-c2nc3ccccc3c3cc4ccccn4c23)c1 | Dose-dependent effect
Cc1cccn2c1cc1c3ccccc3nc(-c3cccs3)c12 | Dose-dependent effect
Brc1ccc2cc3c4ccccc4nc(-c4ccco4)c3n2c1 | Dose-dependent effect

Same assay, conditions: light or radiation study

Compound | IC50
c1csc(-c2nc3ccccc3c3cc4ccccn4c23)c1 | 630 nM
Cc1cccn2c1cc1c3ccccc3nc(-c3cccs3)c12 | 550 nM
Brc1ccc2cc3c4ccccc4nc(-c4ccco4)c3n2c1 | 810 nM

Tested on: HeLa
Experiment: Photocytotoxicity against human HeLa cells assessed as reduction in cell viability at 2 uM preincubated for 1 hr followed blue LED light irradiation for 5 mins and measured after 24 hrs in presence of singlet oxygen scavenger histidine by MTT assay
Assay type: functional, cell-based
Conditions: not given

Compound | Activity
c1csc(-c2nc3ccccc3c3cc4ccccn4c23)c1 | inactive
Cc1cccn2c1cc1c3ccccc3nc(-c3cccs3)c12 | inactive

Tested on: HeLa
Experiment: Induction of ROS generation in human HeLa cells preincubated for 1 hr followed by blue LED light irradiation for 15 mins by DHE staining based HCS analysis
Assay type: functional, cell-based
Conditions: not given

Compound | Activity
c1csc(-c2nc3ccccc3c3cc4ccccn4c23)c1 | Dose-dependent effect
Cc1cccn2c1cc1c3ccccc3nc(-c3cccs3)c12 | Dose-dependent effect
Brc1ccc2cc3c4ccccc4nc(-c4ccco4)c3n2c1 | Dose-dependent effect

Tested on: not listed separately
Experiment: Dark toxicity in human A549 cells assessed as reduction in cell viability up to 10 uM measured after 24 hrs by MTT assay
Assay type: cell-based
Conditions: a549, 24 h

Compound | Activity
c1csc(-c2nc3ccccc3c3cc4ccccn4c23)c1 | Non-Toxic
Cc1cccn2c1cc1c3ccccc3nc(-c3cccs3)c12 | Non-Toxic
Brc1ccc2cc3c4ccccc4nc(-c4ccco4)c3n2c1 | Toxic

Tested on: HeLa
Experiment: Photocytotoxicity against human HeLa cells assessed as reduction in cell viability preincubated for 1 hr followed blue LED light irradiation for 5 mins and measured after 24 hrs by MTT assay
Assay type: functional, cell-based
Conditions: not given

Compound | Activity
c1csc(-c2nc3ccccc3c3cc4ccccn4c23)c1 | Dose-dependent effect
Cc1cccn2c1cc1c3ccccc3nc(-c3cccs3)c12 | Dose-dependent effect
Brc1ccc2cc3c4ccccc4nc(-c4ccco4)c3n2c1 | Dose-dependent effect

Same assay, conditions: light or radiation study

Compound | IC50
c1csc(-c2nc3ccccc3c3cc4ccccn4c23)c1 | 1450 nM
Cc1cccn2c1cc1c3ccccc3nc(-c3cccs3)c12 | 1170 nM
Brc1ccc2cc3c4ccccc4nc(-c4ccco4)c3n2c1 | 1140 nM

Tested on: A549
Experiment: Photocytotoxicity against human A549 cells assessed as reduction in cell viability preincubated for 1 hr followed blue LED light irradiation for 5 mins and measured after 24 hrs by MTT assay
Assay type: functional, cell-based
Conditions: not given

Compound | Activity
c1csc(-c2nc3ccccc3c3cc4ccccn4c23)c1 | Dose-dependent effect
Cc1cccn2c1cc1c3ccccc3nc(-c3cccs3)c12 | Dose-dependent effect
Brc1ccc2cc3c4ccccc4nc(-c4ccco4)c3n2c1 | Dose-dependent effect

Same assay, conditions: A549, light or radiation study

Compound | IC50
c1csc(-c2nc3ccccc3c3cc4ccccn4c23)c1 | 4150 nM
Cc1cccn2c1cc1c3ccccc3nc(-c3cccs3)c12 | 3380 nM
Brc1ccc2cc3c4ccccc4nc(-c4ccco4)c3n2c1 | 2160 nM

Tested on: HeLa
Experiment: Photocytotoxicity against human HeLa cells assessed as induction of mitochondrial membrane potential depolarization at 10 uM preincubated for 1 hr followed by blue LED light irradiation for 5 mins by TMRE staining based confocal microscopic method
Assay type: functional, cell-based
Conditions: not given

Compound | Activity
Cc1cccn2c1cc1c3ccccc3nc(-c3cccs3)c12 | Active

Tested on: HeLa
Experiment: Photocytotoxicity against human HeLa cells assessed as cell membrane blebbing at 10 uM preincubated for 1 hr followed by blue LED light irradiation for 5 mins by differential interference contrast imaging analysis
Assay type: functional, cell-based
Conditions: not given

Compound | Activity
Cc1cccn2c1cc1c3ccccc3nc(-c3cccs3)c12 | Active

Tested on: not listed separately
Experiment: Dark toxicity in human MCF7 cells assessed as reduction in cell viability up to 10 uM measured after 24 hrs by MTT assay
Assay type: cell-based
Conditions: mcf7, 24 h

Compound | Activity
c1csc(-c2nc3ccccc3c3cc4ccccn4c23)c1 | Non-Toxic
Cc1cccn2c1cc1c3ccccc3nc(-c3cccs3)c12 | Non-Toxic
Brc1ccc2cc3c4ccccc4nc(-c4ccco4)c3n2c1 | Toxic

Tested on: HeLa
Experiment: Photocytotoxicity against human HeLa cells assessed as chromatin condensation up to 10 uM preincubated for 1 hr followed by blue LED light irradiation for 5 mins and measured after 13 hrs by Hoechst 33258 staining based fluorescence microscopic method
Assay type: functional, cell-based
Conditions: not given

Compound | Activity
c1csc(-c2nc3ccccc3c3cc4ccccn4c23)c1 | Active
Cc1cccn2c1cc1c3ccccc3nc(-c3cccs3)c12 | Active
Brc1ccc2cc3c4ccccc4nc(-c4ccco4)c3n2c1 | Active

Tested on: MCF7
Experiment: Photocytotoxicity against human MCF7 cells assessed as reduction in cell viability preincubated for 1 hr followed blue LED light irradiation for 5 mins and measured after 24 hrs by MTT assay
Assay type: functional, cell-based
Conditions: not given

Compound | Activity
c1csc(-c2nc3ccccc3c3cc4ccccn4c23)c1 | Dose-dependent effect
Cc1cccn2c1cc1c3ccccc3nc(-c3cccs3)c12 | Dose-dependent effect
Brc1ccc2cc3c4ccccc4nc(-c4ccco4)c3n2c1 | Dose-dependent effect

Same assay, conditions: MCF7, light or radiation study

Compound | IC50
c1csc(-c2nc3ccccc3c3cc4ccccn4c23)c1 | 3460 nM
Cc1cccn2c1cc1c3ccccc3nc(-c3cccs3)c12 | 2680 nM
Brc1ccc2cc3c4ccccc4nc(-c4ccco4)c3n2c1 | 1330 nM

Tested on: DNA
Experiment: Induction of Escherichia coli pBR322 DNA cleavage irradiated with blue LED light after 30 mins by agarose gel electrophoresis method
Assay type: nucleic-acid assay
Conditions: not given

Compound | Activity
c1csc(-c2nc3ccccc3c3cc4ccccn4c23)c1 | Dose-dependent effect
Cc1cccn2c1cc1c3ccccc3nc(-c3cccs3)c12 | Dose-dependent effect
Brc1ccc2cc3c4ccccc4nc(-c4ccco4)c3n2c1 | Dose-dependent effect

Tested on: not listed separately
Experiment: Induction of singlet oxygen production assessed as photodegradation of DPBF by measuring quantum yield after irradiation with 356 nanometer light by UV-Visible spectroscopic analysis
Assay type: functional
Conditions: not given

Compound | Activity
c1csc(-c2nc3ccccc3c3cc4ccccn4c23)c1 | 0.4
Cc1cccn2c1cc1c3ccccc3nc(-c3cccs3)c12 | 0.42
Brc1ccc2cc3c4ccccc4nc(-c4ccco4)c3n2c1 | 0.6

Tested on: DNA
Experiment: Induction of Escherichia coli pBR322 DNA cleavage at 20 uM after 30 mins under dark condition by agarose gel electrophoresis method
Assay type: nucleic-acid assay
Conditions: 0.5 h

Compound | Activity
c1csc(-c2nc3ccccc3c3cc4ccccn4c23)c1 | Non-Toxic
Cc1cccn2c1cc1c3ccccc3nc(-c3cccs3)c12 | Non-Toxic
Brc1ccc2cc3c4ccccc4nc(-c4ccco4)c3n2c1 | Non-Toxic
